Source: patent US6737383B1, “Herbicidal oxadiazolidines” (priority 1999, dated 2004)

Tests used:
corn = assay: Test B pre/postemergence corn; assay type: in vivo, Zea mays
Summary of the method: (§1)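 Herbicidal effect was estimated by eye on a ten-point control scale after plants spent twelve to sixteen days in a greenhouse following soil or foliar treatment. Foliar sprays targeted plants at one to four leaves; all doses were formulated in a non-phytotoxic solvent with surfactant.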

giant foxtail = assay: Test B pre/postemergence giant foxtail; assay type: in vivo, Setaria faberii
Summary of the method: as §1

velvetleaf = assay: Test B pre/postemergence velvetleaf; assay type: in vivo, Abutilon theophrasti; conditions: for Plant response rating, Velvetleaf: Rate 250 g/ha
Summary of the method: as §1

cocklebur = assay: Test B pre/postemergence cocklebur; assay type: in vivo, Xanthium strumarium
Summary of the method: as §1

purple nutsedge = assay: Test B pre/postemergence purple nutsedge; assay type: in vivo, Cyperus rotundus
Summary of the method: as §1

pigweed = assay: Test B pre/postemergence pigweed; assay type: in vivo, Amaranthus retroflexus
Summary of the method: as §1

wheat = assay: Test B pre/postemergence wheat; assay type: in vivo, Triticum aestivum; conditions: for Plant response rating, Wheat: Rate 250 g/ha
Summary of the method: as §1

rape = assay: Test B pre/postemergence rape; assay type: in vivo, Brassica napus
Summary of the method: as §1

surinam grass = assay: Test B pre/postemergence surinam grass; assay type: in vivo, Brachiaria decumbens
Summary of the method: as §1

duck salad = assay: Test B flood test duck salad; assay type: in vivo, Heteranthera limosa
Summary of the method: (§2)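 Flood test on plants grown to the 2-leaf stage; treated plants kept in greenhouse twelve to sixteen days, then visually rated against controls on a 0 (no effect) to 10 (complete control) scale.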

rice = assay: Test B flood test rice; assay type: in vivo, Oryza sativa
Summary of the method: as §2

smallflower flatsedge = assay: Test B flood test smallflower flatsedge; assay type: in vivo, Cyperus difformis
Summary of the method: as §2

soybean = assay: Test B pre/postemergence soybean; assay type: in vivo, Glycine max
Summary of the method: as §1

wild oat = assay: Test B pre/postemergence wild oat; assay type: in vivo, Avena fatua; conditions: for Plant response rating, Wild oats: Rate 250 g/ha
Summary of the method: as §1

sugar beet = assay: Test B pre/postemergence sugar beet; assay type: in vivo, Beta vulgaris; conditions: for Plant response rating, Sugarbeets: Rate 250 g/ha
Summary of the method: as §1

bedstraw = assay: Test B pre/postemergence bedstraw; assay type: in vivo, Galium aparine
Summary of the method: as §1

[1] = Postemergence, Rate 125 g/ha, scale of 0 to 10 where 0 is no effect and 10 is complete control
[2] = Postemergence, Rate 250 g/ha, scale 0 to 10, 0 no effect, 10 complete control
[3] = Preemergence, Rate 62 g/ha, scale 0 to 10 (0 no effect, 10 complete control)
[4] = Preemergence, Rate 125 g/ha, scale 0 to 10 (0 no effect, 10 complete control)
[5] = Preemergence, Rate 250 g/ha, scale of 0 to 10 where 0 is no effect and 10 is complete control
[6] = Preemergence, Rate 500 g/ha, scale 0 to 10 (0 no effect, 10 complete control)
[7] = Rate 62 g/ha, Postemergence, scale of 0 to 10 where 0 is no effect and 10 is complete control
[8] = Rate 500 g/ha, Postemergence, scale 0 to 10, 0 no effect, 10 complete control
[9] = Preemergence, Rate 125 g/ha, 0 is no effect, 10 is complete control
[10] = Preemergence, scale of 0 to 10 where 0 is no effect and 10 is complete control
[11] = Postemergence, scale 0 to 10, 0 is no effect, 10 is complete control
[12] = Rate 250 g/ha, Postemergence, scale 0 to 10, 0 is no effect, 10 is complete control
[13] = Rate 250 g/ha, headed Pre-emergence (flood test species), scale 0 to 10 (0 no effect, 10 complete control)
[14] = Rate 500 g/ha, headed Pre-emergence (flood test species), scale 0 to 10 (0 no effect, 10 complete control)
[15] = Rate 1000 g/ha, Pre-emergence (as headed), scale 0 to 10
[16] = Rate 2000 g/ha, Pre-emergence (as headed), scale 0 to 10

CC(C)N(C(=O)n1oc(=O)n(Cc2cccs2)c1=O)c1ccccc1 [Compound 103]
Corn plant response rating (corn; [1]): 0
Corn plant response rating (corn; [2]): 0
Corn plant response rating (corn; [3]): 0
Plant response rating, Corn (corn; [4]): 0
Plant response rating, Corn (corn; [5]): 0
Corn plant response rating (corn; [6]): 0
Corn plant response rating (corn; [7]): 0
Corn plant response rating (corn; [8]): 2
Giant foxtail plant response rating (giant foxtail; [1]): 1
Giant foxtail plant response rating (giant foxtail; [2]): 3
Giant foxtail plant response rating (giant foxtail; [3]): 8
Plant response rating, Giant foxtail (giant foxtail; [4]): 9
Plant response rating, Giant foxtail (giant foxtail; [5]): 9
Giant foxtail plant response rating (giant foxtail; [6]): 9
Giant foxtail plant response rating (giant foxtail; [7]): 0
Giant foxtail plant response rating (giant foxtail; [8]): 7
Velvetleaf plant response rating (velvetleaf; [1]): 0
Velvetleaf plant response rating (velvetleaf; [3]): 0
Velvetleaf plant response rating (0 to 10 scale) (velvetleaf; [9]): 0
Plant response rating, Velvetleaf (velvetleaf; [10]): 3
Velvetleaf plant response rating (velvetleaf; [6]): 3
Velvetleaf plant response rating (velvetleaf; [7]): 0
Plant response rating, Velvetleaf (velvetleaf; [11]): 1
Velvetleaf plant response rating (velvetleaf; [8]): 4
Cocklebur plant response rating (cocklebur; [1]): 0
Cocklebur plant response rating (cocklebur; [2]): 0
Cocklebur plant response rating (cocklebur; [3]): 0
Plant response rating, Cocklebur (cocklebur; [4]): 0
Cocklebur plant response rating (cocklebur; [6]): 0
Cocklebur plant response rating (cocklebur; [7]): 0
Cocklebur plant response rating (cocklebur; [8]): 0
Nutsedge plant response rating (purple nutsedge; [1]): 0
Nutsedge plant response rating (purple nutsedge; [2]): 0
Nutsedge plant response rating (purple nutsedge; [3]): 0
Plant response rating, Nutsedge (purple nutsedge; [4]): 0
Plant response rating, Nutsedge (purple nutsedge; [5]): 0
Nutsedge plant response rating (purple nutsedge; [6]): 0
Nutsedge plant response rating (purple nutsedge; [7]): 0
Nutsedge plant response rating (purple nutsedge; [8]): 0
Redroot pigweed plant response rating (pigweed; [1]): 0
Redroot pigweed plant response rating (pigweed; [3]): 0
Plant response rating, Redroot pigweed (pigweed; [4]): 0
Plant response rating, Redroot pigweed (pigweed; [5]): 6
Redroot pigweed plant response rating (pigweed; [6]): 7
Redroot pigweed plant response rating (pigweed; [7]): 0
Plant response rating, Redroot pigweed (pigweed; [12]): 2
Redroot pigweed plant response rating (pigweed; [8]): 4
Wheat plant response rating (wheat; [1]): 0
Wheat plant response rating (wheat; [3]): 0
Wheat plant response rating (0 to 10 scale) (wheat; [9]): 0
Plant response rating, Wheat (wheat; [10]): 0
Wheat plant response rating (wheat; [6]): 2
Wheat plant response rating (wheat; [7]): 0
Plant response rating, Wheat (wheat; [11]): 0
Wheat plant response rating (wheat; [8]): 0
Rape plant response rating (rape; [1]): 0
Rape plant response rating (rape; [2]): 1
Rape plant response rating (rape; [3]): 0
Plant response rating, Rape (rape; [4]): 0
Plant response rating, Rape (rape; [5]): 0
Rape plant response rating (rape; [6]): 0
Rape plant response rating (rape; [7]): 0
Rape plant response rating (rape; [8]): 3
B. signalgrass plant response rating (surinam grass; Postemergence, Rate 62 g/ha, scale 0 to 10, 0 is no effect, 10 is complete control): 0
B. signalgrass plant response rating (surinam grass; [2]): 0
B. signalgrass plant response rating (surinam grass; [3]): 1
Plant response rating, B. signalgrass (surinam grass; [4]): 5
Plant response rating, B. signalgrass (surinam grass; [5]): 7
B. signalgrass plant response rating (surinam grass; [6]): 7
B. signalgrass plant response rating (surinam grass; Rate 125 g/ha, Postemergence, scale 0 to 10, 0 no effect, 10 complete control): 0
B. signalgrass plant response rating (surinam grass; Rate 500 g/ha, Postemergence, scale of 0 to 10 where 0 is no effect and 10 is complete control): 2
Ducksalad plant response rating (duck salad; [13]): 0
Plant response rating, Ducksalad (duck salad; [14]): 0
Ducksalad plant response rating (duck salad; [15]): 0
Ducksalad plant response rating (duck salad; [16]): 0
Rice plant response rating (rice; [13]): 0
Plant response rating, Rice (rice; [14]): 0
Rice plant response rating (rice; [15]): 0
Rice plant response rating (rice; [16]): 0
S. Flatsedge plant response rating (smallflower flatsedge; Pre-emergence, Rate 1000 g/ha, scale 0 to 10 (0 no effect, 10 complete control)): 0
S. Flatsedge plant response rating (smallflower flatsedge; [13]): 0
Plant response rating, S. Flatsedge (smallflower flatsedge; [14]): 0
S. Flatsedge plant response rating (smallflower flatsedge; [16]): 0
Soybean plant response rating (soybean; [1]): 4
Soybean plant response rating (soybean; [3]): 0
Plant response rating, Soybean (soybean; [4]): 0
Plant response rating, Soybean (soybean; [5]): 0
Soybean plant response rating (soybean; [6]): 0
Soybean plant response rating (soybean; [7]): 4
Plant response rating, Soybean (soybean; [12]): 4
Soybean plant response rating (soybean; [8]): 6
Wild oats plant response rating (wild oat; [1]): 0
Wild oats plant response rating (wild oat; [3]): 0
Wild oats plant response rating (0 to 10 scale) (wild oat; [9]): 0
Plant response rating, Wild oats (wild oat; [10]): 3
Wild oats plant response rating (wild oat; [6]): 6
Wild oats plant response rating (wild oat; [7]): 0
Plant response rating, Wild oats (wild oat; [11]): 0
Wild oats plant response rating (wild oat; [8]): 0
Sugarbeets plant response rating (sugar beet; [1]): 2
Sugarbeets plant response rating (sugar beet; [3]): 0
Sugarbeets plant response rating (0 to 10 scale) (sugar beet; [9]): 0
Plant response rating, Sugarbeets (sugar beet; [10]): 0
Sugarbeets plant response rating (sugar beet; [6]): 4
Sugarbeets plant response rating (sugar beet; [7]): 1
Plant response rating, Sugarbeets (sugar beet; [11]): 2
Sugarbeets plant response rating (sugar beet; [8]): 3
Bedstraw plant response rating (bedstraw; [2]): 0
Bedstraw plant response rating (bedstraw; [3]): 0
Plant response rating, Bedstraw (bedstraw; [4]): 0
Plant response rating, Bedstraw (bedstraw; [5]): 0
Bedstraw plant response rating (bedstraw; [6]): 0
